Measured values as given in patent US8784887B2, “Pharmaceutical preparation of N-[5-(aminosulfonyl)-4-methyl-1,3-thiazol-2-yl]-N-methyl-2-[4-(2-pyridinyl)phenyl]acetamide” (Aicuris GmbH & Co. KG, priority 2005, dated 2014).

Assay: release experiments with pure active compound (I) and with state-of-the-art preparations
Type: physicochemical
Settings: release experiments using pure active compound (I)
Text: If those preparations known from the state of the art are applied to the active compound (I) described here, it has unexpectedly been shown that there is no immediate release of the active compound but that there is a markedly delayed release which is therapeutically not desired.

release behavior of pure active compound (in words): “clumping” or a gel formation
Structure (SMILES): Cc1nc(N(C)C(=O)Cc2ccc(-c3ccccn3)cc2)sc1S(N)(=O)=O [active compound (I), N-[5-(Aminosulfonyl)-4-methyl-1,3-thiazol-2-yl]-N-methyl-2-[4-(2-pyridinyl)phenyl]acetamide]
